Patent US20240216272A1, “PHARMACEUTICAL PREPARATION” (KOWA COMPANY, LTD., priority 2014, published 2024)

Columns and labels:
Assay type in all cases: physicochemical
[1] = Test Example 8: Preservation Test No. 2, color difference (ΔYI) at 60° C.; conditions: for ΔYI: aqueous composition of Table 9 (boric acid, pH 6.7), 60° C. for 3 months; for Evaluation (ΔYI): aqueous composition of Table 9, 60° C. for 3 months
Protocol: An aqueous composition of the formulation shown in Table 9 was prepared in accordance with a conventional method, and then placed in a container made of polyethylene (PE) or polypropylene (PP) to produce a pharmaceutical preparation. Each of the resulting pharmaceutical preparations was preserved at 60° C. for 3 months, and a color difference (ΔYI) before and after the preservation was measured using a color difference meter (spectrophotometer, CM-700d: Konica Minolta Sensing, Inc.). A ΔYI value of 5 or more was rated as “b”, and a ΔYI value of less than 5 was rated as “a”. [table]

[2] = Test Example 2: photostability of ripasudil in an aqueous composition; conditions: D65 lamp; for Analogs (%): aqueous composition 0.4 g/100 mL as free form, pH 6.0, transparent polypropylene container, 25° C.
Protocol: In the following test examples, ripasudil monohydrochloride dihydrate can be produced in accordance with the method described in WO2006/057397, for example. Moreover, in the following test examples, measurement of ripasudil and its analogs using HPLC was performed using an ODS column as the column, 0.01 mol/L phosphate buffer and acetonitrile as the mobile phase, and an ultraviolet absorptiometer (wavelength: 280 nm) as the detector.
The stability of ripasudil incorporated in an aqueous composition with respect to light was evaluated by examining the presence or absence of degradation products formed by exposure to light, as in Test Example 1.
Specifically, an aqueous composition containing, per 100 mL, 0.4896 g of ripasudil monohydrochloride dihydrate (0.4 g, as the free form of ripasudil), 0.4 g of anhydrous sodium dihydrogen phosphate, 2.136 g of glycerin, 0.002 g of benzalkonium chloride, an appropriate amount of sodium hydroxide (pH 6.0), and sterile purified water (balance) was prepared, and this aqueous composition was stored in a transparent container made of polypropylene. The aqueous composition was then irradiated with 4000 lux of light to give a cumulative radiation dose of 300,000, 600,000, or 1,200,000 lux·hr, at 25° C., with a D65 fluorescent lamp as the light source, using a photostability tester (LT-120A: Nagano Science Corporation).
To examine the presence or absence of photodegradation products of ripasudil, the presence or absence of an increase in the amount of ripasudil analogs was evaluated. The amount of analogs was evaluated as the area percentage (%) relative to the total peak area derived from ripasudil and its analogs, using HPLC.

[3] = Test Example 3: wavelengths of rays causing degradation of ripasudil in an aqueous composition No. 1; conditions: for Analogs (%): about 15 W·h/m^2, 25° C.; for increase in the amount of analogs: aqueous composition, in words
Protocol: In the following test examples, ripasudil monohydrochloride dihydrate can be produced in accordance with the method described in WO2006/057397, for example. Moreover, in the following test examples, measurement of ripasudil and its analogs using HPLC was performed using an ODS column as the column, 0.01 mol/L phosphate buffer and acetonitrile as the mobile phase, and an ultraviolet absorptiometer (wavelength: 280 nm) as the detector. The wavelengths of rays causing the photodegradation of ripasudil in the aqueous composition examined in Test Example 2 were identified by examining the presence or absence of degradation products formed by exposure to light, by irradiation of rays with a specific range of wavelengths. Specifically, an aqueous composition containing, per 100 mL, 0.0612 g of ripasudil monohydrochloride dihydrate (0.05 g as the free form of ripasudil), 1.19 g of boric acid, 0.42 g of potassium chloride, 0.002 g of benzalkonium chloride, an appropriate amount of sodium hydroxide (pH 6.7), and sterile purified water (balance) was prepared, and this aqueous composition was stored in a transparent container made of polypropylene. The aqueous composition was then irradiated with rays with wavelengths in the range of approximately 270 to 335 nm, 320 to 395 nm, 370 to 435 nm, 430 to 470 nm, 470 to 530 nm, 525 to 575 nm, 570 to 630 nm, 625 to 675 nm, or 660 to 740 nm, at 25° C., using a spectroradiometer equipped with optical filters (spectral unit: HSU-100S, light source: MAX-302FBD; both from Asahi Spectra Co., Ltd.). Note that the rays of wavelengths in each of the ranges were emitted at a radiation energy of about 15 w·h/m^2. To examine the presence or absence of photodegradation products of ripasudil, the presence or absence of an increase in the amount of ripasudil analogs was evaluated, using the same method as that of Test Example 1.

[4] = Test Example 10: Preservation Test No. 4, precipitation of crystals at 0° C.; design: key to Presence or Absence of Precipitation of Crystals: the absence of precipitation of crystals was rated as “a”; the presence of precipitation of crystals was rated as “b”
Protocol: An aqueous composition of the formulation shown in Table 13 was prepared in accordance with a conventional method, and then placed in a container made of polyethylene terephthalate (PET) to produce a pharmaceutical preparation. The resulting pharmaceutical preparation was preserved at 0° C. for 21 days, and then visually evaluated for the presence or absence of precipitation of crystals. Note that the absence of precipitation of crystals was rated as “a”, and the presence of precipitation of crystals was rated as “b”. [table]

C[C@H]1CNCCCN1S(=O)(=O)c1cccc2cncc(F)c12 [ripasudil, 4-fluoro-5-[[(2S)-2-methyl-1,4-diazepan-1-yl]sulfonyl]isoquinoline]
ΔYI ([1]; container PE): 4.15 | ΔYI ([1]; container PP): 4.64 | Evaluation (ΔYI) ([1]; container PE): a (a ΔYI value of less than 5 was rated as “a”) | Evaluation (ΔYI) ([1]; container PP): a (a ΔYI value of less than 5 was rated as “a”) | Analogs (%) ([2]; 300,000 lux·hr): 1.29% | Analogs (%) ([2]; 600,000 lux·hr): 1.95% | Analogs (%) ([2]; 1,200,000 lux·hr): 3.67% | Analogs (%) ([2]; before exposure to light): 0.17% | formation of degradation products due to exposure to light ([2]; aqueous composition, transparent polypropylene container, in words): degradation products due to exposure to light are formed | Analogs (%) ([3]; aqueous composition 0.05 g/100 mL as free form, boric acid, pH 6.7, transparent polypropylene container, emitted wavelengths 270 to 335 nm): 4.22% | increase in the amount of analogs ([3]; rays with wavelengths of 370 nm or more): an increase in the amount of analogs was not observed | increase in the amount of analogs ([3]; shorter wavelengths, particularly 270 to 335 nm): a significant increase in the amount of analogs was observed | Analogs (%) ([3]; same composition, emitted wavelengths 320 to 395 nm): 1.23% | Analogs (%) ([3]; same composition, emitted wavelengths 370 to 435 nm): 0.05% | Analogs (%) ([3]; same composition, emitted wavelengths 430 to 470 nm): 0.05% | Analogs (%) ([3]; same composition, emitted wavelengths 470 to 530 nm): 0.05% | Analogs (%) ([3]; same composition, emitted wavelengths 525 to 575 nm): 0.05% | Analogs (%) ([3]; same composition, emitted wavelengths 570 to 630 nm): 0.05% | Analogs (%) ([3]; same composition, emitted wavelengths 625 to 675 nm): 0.05% | Analogs (%) ([3]; same composition, emitted wavelengths 660 to 740 nm): 0.05% | Presence or Absence of Precipitation of Crystals ([4]; aqueous composition of Table 13 (boric acid, pH 6.7), 0° C. for 21 days, container PET): a | precipitation of crystals ([4]; changed formulation, preserved at low temperature, container made of PET, in words): no precipitation of crystals was observed
